Data taken from PMC8968665, “Verteporfin is a substrate-selective γ-secretase inhibitor that binds the amyloid precursor protein transmembrane domain” (The Journal of Biological Chemistry, 2022).
“Also recorded” adds a separate entry of the source. Like-named read-outs stand apart in the source and are kept apart here.

Experiments:
[1] = biological target: T1, γ-secretase cleavage of Notch-1 TM/JM (Homo sapiens, UniProt P49768+Q92542+Q96BI3+Q9NZ42); test: γ-Secretase assay, Notch-1 TM/JM cleavage, NICD by anti-V1744 Western blot; assay type: biochemical
T1 construct: made in house; host or cells: Notch-1 TM/JM: E. coli BL21DE3 Star
T1 sequence (Q92542 34-709, other chains not shown): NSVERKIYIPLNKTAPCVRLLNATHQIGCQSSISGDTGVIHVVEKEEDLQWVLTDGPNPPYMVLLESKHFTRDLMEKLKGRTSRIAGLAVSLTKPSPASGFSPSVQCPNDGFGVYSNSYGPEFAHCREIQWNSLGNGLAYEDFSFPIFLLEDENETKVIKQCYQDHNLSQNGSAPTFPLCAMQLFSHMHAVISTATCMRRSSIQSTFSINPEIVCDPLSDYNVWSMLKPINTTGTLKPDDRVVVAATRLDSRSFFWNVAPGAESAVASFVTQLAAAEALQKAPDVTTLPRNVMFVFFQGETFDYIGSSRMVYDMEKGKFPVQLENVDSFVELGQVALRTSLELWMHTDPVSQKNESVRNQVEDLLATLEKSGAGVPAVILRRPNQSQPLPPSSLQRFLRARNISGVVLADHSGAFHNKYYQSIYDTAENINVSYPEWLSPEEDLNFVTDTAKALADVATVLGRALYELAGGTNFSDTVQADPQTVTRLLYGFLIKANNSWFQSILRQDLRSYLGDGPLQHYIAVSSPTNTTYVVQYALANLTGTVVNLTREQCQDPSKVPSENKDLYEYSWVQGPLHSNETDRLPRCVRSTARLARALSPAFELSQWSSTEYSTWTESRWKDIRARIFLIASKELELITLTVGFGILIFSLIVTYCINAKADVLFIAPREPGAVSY
T1 sequence (Q96BI3 whole entry, other chains not shown): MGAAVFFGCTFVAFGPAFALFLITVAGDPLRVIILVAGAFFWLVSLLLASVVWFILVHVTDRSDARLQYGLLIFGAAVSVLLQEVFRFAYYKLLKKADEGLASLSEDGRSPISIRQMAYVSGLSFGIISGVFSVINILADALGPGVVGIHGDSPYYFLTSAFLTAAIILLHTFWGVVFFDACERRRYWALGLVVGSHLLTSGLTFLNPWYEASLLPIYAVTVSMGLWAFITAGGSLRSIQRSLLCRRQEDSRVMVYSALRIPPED
T1 sequence (Q9NZ42 whole entry, other chains not shown): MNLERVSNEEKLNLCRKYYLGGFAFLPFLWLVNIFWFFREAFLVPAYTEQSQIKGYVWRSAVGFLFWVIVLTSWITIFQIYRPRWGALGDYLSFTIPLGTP
Procedure: (§1) The γ-secretase-dependent proteolysis assays with both substrates (C100-FLAG and HexaHis Notch 1 JM/TM) were performed in a weak zwitterionic detergent (CHAPSO, 3-[(3- cholamidopropyl)dimethylammonio]-2-hydroxy-1-propanesulfonate) solubilized conditions ([79], [80]). C100 is C99 with an added N-terminal Met residue. Stock solution of purified γ-secretase ([81], [82]) was diluted to 30 nM in standard assay buffer containing 50 mM HEPES (pH 7.0), 150 mM NaCl, 0.1% DOPC (phosphatidylcholine), 0.025% DOPE (phosphatidylethanolamine), and 0.25% CHAPSO) and incubated at 37 °C for 30 min, whereupon stock solution of verteporfin or inhibitor (LY411,575) was added to achieve the desired concentration with 1% final DMSO concentration. Proteolytic reactions were initiated by adding purified substrates (either C100-FLAG(79) or HexaHis-Notch 1 JM/TM(77)) and incubating at 37 °C (16 h for C100Flag and 4 h for HexaHis-Notch 1 JM/TM). Reactions were quenched with SDS, and the cleaved intracellular domain products (AICD-FLAG released from C100-FLAG or truncated intracellular domain (NICD) released from the proteolysis of Hexa-His Notch 1 JM/TM) were visualized by Western blot using specific primary antibodies, anti-FLAG antibody for FLAG-tagged AICD, and neoepitope-specific anti-V1744 antibody for NICD ([80], [83], [84]).

[2] = biological target: T2, γ-secretase cleavage of C100-Flag (C99) (Homo sapiens, UniProt P05067); test: γ-Secretase assay, C100-FLAG cleavage, AICD by anti-Flag Western blot; assay type: biochemical
T2 construct: C100 is C99 with an added N-terminal Met residue; made in house
T2 sequence (P05067 672-770 limits assumed): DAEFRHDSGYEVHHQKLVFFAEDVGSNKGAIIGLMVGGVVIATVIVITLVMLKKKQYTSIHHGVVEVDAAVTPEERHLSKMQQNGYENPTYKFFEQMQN
Procedure: as §1, with “Stock solution of purified γ-secretase ([81], [82]) was diluted to 30 nM in standard assay buffer containing 50 mM HEPES (pH 7.0), 150 mM NaCl, 0.1% DOPC (phosphatidylcholine), 0.025% DOPE (phosphatidylethanolamine), and 0.25% CHAPSO) and incubated at 37 °C for 30 min, whereupon stock solution of verteporfin or inhibitor (LY411,575) was added to achieve the desired concentration with 1% final DMSO concentration.” left out

[3] = test system: T3, C99 L723A; test: TROSY NMR titration of C99 L723A mutant by verteporfin; assay type: binding, human; conditions: LMPG micelles, up to 300 µM verteporfin, n=1
T3 construct: the transmembrane 99 residue C-terminal (C99) domain; hexa-His; made in house
Procedure: A Bruker Avance III 600 MHz NMR spectrometer equipped with a cryoprobe (CPTCI) and automated sample changer (SampleJet) was used to collect NMR spectra. Sample details are described above. For high-throughput screening data collection, the ^15N-^1H BEST-TROSY (b_trosy3gpph.2) experiment with 64 scans for each of 96 increments and a relaxation delay of 200 ms was run at 318 K for a total data acquisition time of 35 min per sample. To achieve enhanced signal-to-noise ratio, follow-up titrations and control experiments were conducted using the BEST-TROSY pulse program with 200 scans per 96 increments at 318 K, for a total data acquisition time of 110 min per sample. Data were processed using Bruker Topspin 3.6 using a Gaussian window function with a line broadening of -10 and a Gaussian max of 0.1 in both dimensions. NMR data were then further processed and analyzed using NMR-FAM SPARKY, plotted using GraphPad Prism 9, and prepared for publication figures using Affinity Designer.

Substance: verteporfin
- reduction of Notch-1 cleavage at saturating verteporfin ([1]; 30 nM γ-secretase): approximately 75%
- IC50 ([1]; 30 nM γ-secretase, Notch-1 TM/JM, 4 h, 37 °C, n = 3, estimated, at concentrations above 200 μM, read-out: IC50, inhibition of NICD production): 240 ± 66 µM
- inhibition of Notch-1 cleavage ([1]; verteporfin at 164 μM (IC50 for C99 cleavage)): no inhibition
- effect on Notch-1 cleavage at low concentrations ([1]; verteporfin below ca. 200 μM, relative to 0 verteporfin): first activated; also recorded: enhanced; also recorded: stimulate
- IC50 ([2]; 30 nM purified γ-secretase, C100-Flag, 16 h, 37 °C, n = 3, read-out: IC50, inhibition of AICD production): 164 ± 45 µM
- degree of inhibition of C99 cleavage at saturating verteporfin ([2]; 30 nM γ-secretase): approximately 75%
- C100-Flag cleavage efficiency (Western blot) ([2]; 100 µM verteporfin, 2 µM C100-Flag, 1 nM γ-secretase, Fig. S6A): greatly reduced
- IC50 ([2]; depending on assay conditions (1 nM to 30 nM enzyme), read-out: IC50 range for γ-secretase cleavage of C99): 15 to 164 µM
- binding to C99 L723A [3]: nearly complete lack of binding; also recorded: binding was disrupted
